Test results taken from patent publication US20260198493A1, “HYDRAZIDE COMPOUND AND AGRICULTURAL/HORTICULTURAL FUNGICIDE” (Nippon Soda Co., Ltd., priority 2022, published 2026).

Columns and labels:
[1] = system: Botrytis cinerea; type: cell-based; details: 120 h, 25 ppm by volume, Vogel medium, 20° C., five days, dark, read-out: growth inhibition ratio
[2] = system: Botrytis cinerea; assay: Control test of cucumber gray mold (sprayed young cucumber seedlings); type: in vivo; details: 96 h, four days after inoculation; for pest or weed control at 125 ppm: 125 ppm by mass spray; for pest or weed control at 25 ppm: 25 ppm by mass spray
Description: Then, the drug liquid was sprayed onto young cucumber seedlings cultivated in a nursery pot (variety “Jihai”-based, cotyledon stage), and then air-dried. […] They were left still in a moist room at 20° C. Four days after inoculation, leaves of the young cucumber seedlings were visually observed, and the control value was calculated from the lesion area ratio in accordance with the following equation. [formula]

[3] = system: Glomerella cingulata; assay: Fungicidal effect test against fungi causing grape ripe rot disease; details: Colletotrichum gloeosporioides, 72 h, read-out: growth inhibition ratio
[4] = system: Colletotrichum acutatum; assay: Fungicidal effect test against fungi causing apple anthracnose; details: 96 h, read-out: growth inhibition ratio
[5] = system: Erysiphe graminis f.sp.tritici; assay: Control test of wheat powdery mildew disease (sprayed young wheat seedlings); type: in vivo; details: Blumeria graminis, 144 h, 125 ppm by mass spray, six days after inoculation
Text: [formula] […] Then, the drug liquid was sprayed onto young wheat seedlings cultivated in a nursery pot (variety “Chihoku”, one-to two-leaf stage), and then air-dried. Thereafter, conidiospores of fungi causing wheat powdery mildew disease (Erysiphe graminis f.sp.tritici) were sprinkled on the young wheat seedlings to inoculate them (treated area). As a control, the conidiospores of fungi causing wheat powdery mildew disease (Erysiphe graminis f.sp.tritici) were sprinkled on young wheat seedlings unsprayed with the drug liquid (untreated area). They were left still in a greenhouse at 20° C. Six days after inoculation, leaves of young wheat seedlings were visually observed, and the lesion area ratio was determined to calculate the control value in a similar manner to the previous test.

[6] = system: Venturia inaequalis; assay: Control test of apple scab disease (sprayed young apple seedlings); type: in vivo; details: 125 ppm by mass spray, 12 to 14 days after inoculation
Description: [formula] […] Then, the drug liquid was sprayed onto young apple seedlings cultivated in a nursery pot (variety “Orin”, three-to four-leaf stage), and then air-dried. Thereafter, conidiospores of fungi causing apple scab disease (Venturia inaequalis) were inoculated thereon (treated area). As a control, the conidiospores were inoculated in a similar manner to the above on young apple seedlings unsprayed with the drug liquid (untreated area). They were left still at 20° C. in a moist room with light and dark cycles repeated every 12 hours. 12 Days to 14 days after inoculation, leaves of young apple seedlings were visually observed, and the control value was calculated from the lesion area ratio in accordance with the equation used in the control test of cucumber gray mold.

CC(=O)N(Cc1ccc(Cl)cc1Cl)NC(=O)c1cc(C)nnc1Oc1cccc(C2CC2)c1F [b-13]
≥ 75%: inhibition of growth at 25 ppm [1] | pest or weed control at 125 ppm [2] | inhibition of growth at 25 ppm [3] | inhibition of growth at 25 ppm [4] | pest or weed control at 125 ppm [5]

Cc1ccc(CN(NC(=O)c2cc(C)nnc2Oc2cccc(C3CC3)c2F)S(C)(=O)=O)c(C)c1 [b-26, N′-(3-(3-cyclopropyl-2-fluorophenoxy)-6-methylpyridazine-4-carbonyl)-N-(2,4-dimethylbenzyl)methanesulfonohydrazide]
≥ 75%: pest or weed control at 125 ppm [6] | inhibition of growth at 25 ppm [1] | inhibition of growth at 25 ppm [3] | inhibition of growth at 25 ppm [4]

COC(=O)N(Cc1ccc(C)cc1C)NC(=O)c1cc(C)nnc1Oc1cccc(Cl)c1Br [b-35]
≥ 75%: pest or weed control at 125 ppm [6] | inhibition of growth at 25 ppm [1]

Cc1ccc(CN(NC(=O)c2cc(C)nnc2Oc2cccc(C3CC3)c2F)C(=O)C2COC2)c(C)c1 [b-40]
≥ 75%: inhibition of growth at 25 ppm [1] | inhibition of growth at 25 ppm [3] | inhibition of growth at 25 ppm [4] | pest or weed control at 125 ppm [5]

CCc1cccc(Oc2nnc(C)cc2C(=O)NN(Cc2ccc(C)cc2C)C(=O)OC)c1 [b-50]
≥ 75%: inhibition of growth at 25 ppm [1] | pest or weed control at 125 ppm [2] | inhibition of growth at 25 ppm [3] | inhibition of growth at 25 ppm [4] | pest or weed control at 125 ppm [5]

CCc1ccc(Oc2nnc(C)cc2C(=O)NN(Cc2ccc(C)cc2C)C(=O)OC)cc1 [b-51]
≥ 75%: inhibition of growth at 25 ppm [1] | inhibition of growth at 25 ppm [3] | inhibition of growth at 25 ppm [4] | pest or weed control at 125 ppm [5]

CC(=O)C(=O)N(Cc1ccc(C)cc1C)NC(=O)c1cc(C)nnc1Oc1cccc(C2CC2)c1F [b-58, 3-(3-Cyclopropyl-2-fluorophenoxy)-N′-(2,4-dimethylbenzyl)-6-methyl-N′-(2-oxopropanoyl)pyridazine-4-carbohydrazide]
≥ 75%: inhibition of growth at 25 ppm [1] | pest or weed control at 125 ppm [2] | inhibition of growth at 25 ppm [3] | inhibition of growth at 25 ppm [4] | pest or weed control at 125 ppm [5]

COC(=O)N(Cc1ccc(C)cc1C)NC(=S)c1cc(C)nnc1Oc1cccc(C2CC2)c1F [b-59, Methyl 2-(3-(3-cyclopropyl-2-fluorophenoxy)-6-methylpyridazine-4-carbonothioyl)-1-(2,4-dimethylbenzyl)hydrazine-1-carboxylate]
≥ 75%: inhibition of growth at 25 ppm [1] | pest or weed control at 125 ppm [2] | inhibition of growth at 25 ppm [3] | inhibition of growth at 25 ppm [4]

COC(=O)N(Cc1ccc(C)nc1C)NC(=O)c1cc(C)nnc1Oc1cccc(C2CC2)c1F [b-60]
≥ 75%: inhibition of growth at 25 ppm [3] | inhibition of growth at 25 ppm [4] | pest or weed control at 125 ppm [5]

COC(=O)N(Cc1ccc(C)cc1C)NC(=O)c1cc(C)nnc1Oc1ccc(C)c(Br)c1 [b-62]
≥ 75%: inhibition of growth at 25 ppm [1] | inhibition of growth at 25 ppm [3] | inhibition of growth at 25 ppm [4] | pest or weed control at 125 ppm [5]

CC(=O)N(Cc1ccc(C)cc1C)NC(=O)c1nc(C)ncc1Oc1cccc(C2CC2)c1F [b-64]
≥ 75%: inhibition of growth at 25 ppm [1] | pest or weed control at 125 ppm [2] | inhibition of growth at 25 ppm [3] | inhibition of growth at 25 ppm [4]

COC(=O)N(Cc1ccc(C)cc1C)NC(=O)c1cc(C)nnc1Oc1cccc(C#N)c1F [b-69]
≥ 75%: inhibition of growth at 25 ppm [1] | inhibition of growth at 25 ppm [3] | inhibition of growth at 25 ppm [4] | pest or weed control at 125 ppm [5]

COC(=O)N(Cc1ccc2ccccc2c1)NC(=O)c1cc(C)nnc1Oc1cccc(C2CC2)c1F [b-71]
≥ 75%: pest or weed control at 125 ppm [6] | inhibition of growth at 25 ppm [1] | inhibition of growth at 25 ppm [3] | inhibition of growth at 25 ppm [4]

COC(=O)N(NC(=O)c1cc(C)nnc1Oc1cccc(C2CC2)c1F)C(C)c1ccc(C)cc1C (stereo not shown) [b-72]
≥ 75%: inhibition of growth at 25 ppm [1] | pest or weed control at 25 ppm [2] | inhibition of growth at 25 ppm [3] | inhibition of growth at 25 ppm [4]

COC(=O)N(Cc1ccc(C)cc1C)NC(=O)c1cc(Cl)nnc1Oc1ccc2c(c1)CCC2 [b-79]
≥ 75%: pest or weed control at 125 ppm [6] | inhibition of growth at 25 ppm [1] | pest or weed control at 125 ppm [2] | inhibition of growth at 25 ppm [3] | inhibition of growth at 25 ppm [4]

COC(=O)N(Cc1ccc(Cl)nc1Cl)NC(=O)c1cc(C)nnc1Oc1cccc(C2CC2)c1F [b-93, Methyl 2-(3-(3-cyclopropyl-2-fluorophenoxy)-6-methylpyridazine-4-carbonyl)-1-((2,6-dichloropyridin-3-yl)methyl)hydrazine-1-carboxylate]
≥ 75%: inhibition of growth at 25 ppm [1] | inhibition of growth at 25 ppm [3] | inhibition of growth at 25 ppm [4] | pest or weed control at 125 ppm [5]

COC(=O)N(Cc1ccc(OC)cc1C)NC(=O)c1nc(C)ncc1Oc1cccc(C2CC2)c1F [b-105]
≥ 75%: inhibition of growth at 25 ppm [1] | pest or weed control at 25 ppm [2] | inhibition of growth at 25 ppm [3] | inhibition of growth at 25 ppm [4]

COC(=O)N(Cc1ccc(C)cc1C)NC(=O)c1nc(C)nnc1Oc1cccc(C2CC2)c1F [b-115]
≥ 75%: inhibition of growth at 25 ppm [1] | pest or weed control at 25 ppm [2] | inhibition of growth at 25 ppm [3] | inhibition of growth at 25 ppm [4]

COC(=O)N(Cc1sc(C)cc1C)NC(=O)c1cc(C)nnc1Oc1cccc(C2CC2)c1F [b-122, Methyl 2-(3-(3-cyclopropyl-2-fluorophenoxy)-6-methylpyridazine-4-carbonyl)-1-((3,5-dimethylthiophen-2-yl)methyl)hydrazine-1-carboxylate]
≥ 75%: inhibition of growth at 25 ppm [1] | pest or weed control at 125 ppm [2] | inhibition of growth at 25 ppm [3] | inhibition of growth at 25 ppm [4]

COC(=O)N(Cc1ccc(C)cc1C)NC(=O)c1cc(N(C)C)ncc1Oc1cccc(C2CC2)c1F [b-125]
≥ 75%: inhibition of growth at 25 ppm [1] | inhibition of growth at 25 ppm [3] | inhibition of growth at 25 ppm [4] | pest or weed control at 125 ppm [5]

COC(=O)N(Cc1ccc(OC)cc1C)NC(=O)c1nc(C)nnc1Oc1cccc(C2CC2)c1F [b-130]
≥ 75%: inhibition of growth at 25 ppm [1] | pest or weed control at 25 ppm [2] | pest or weed control at 125 ppm [2] | inhibition of growth at 25 ppm [3] | inhibition of growth at 25 ppm [4]

COC(=O)N(Cc1ccc(C)cc1C)NC(=O)c1cc(C)nnc1Oc1cc(C)cc(F)c1 [b-144]
≥ 75%: pest or weed control at 125 ppm [6] | inhibition of growth at 25 ppm [1] | inhibition of growth at 25 ppm [3] | inhibition of growth at 25 ppm [4]

COC(=O)N(Cc1ccc([N+](=O)[O-])cc1C)NC(=O)c1cc(C)nnc1Oc1cccc(C2CC2)c1F [b-162]
≥ 75%: inhibition of growth at 25 ppm [1] | inhibition of growth at 25 ppm [3] | inhibition of growth at 25 ppm [4] | pest or weed control at 125 ppm [5]

COC(=O)N(Cc1ccc(-c2ccc(F)cc2)cc1)NC(=O)c1cc(C)nnc1Oc1cccc(C2CC2)c1F [b-164]
≥ 75%: pest or weed control at 125 ppm [6] | inhibition of growth at 25 ppm [1] | inhibition of growth at 25 ppm [3] | inhibition of growth at 25 ppm [4]

COC(=O)N(Cc1ccc(Oc2ccccc2)cc1)NC(=O)c1cc(C)nnc1Oc1cccc(C2CC2)c1F [b-165]
≥ 75%: pest or weed control at 125 ppm [6] | inhibition of growth at 25 ppm [1] | inhibition of growth at 25 ppm [3] | inhibition of growth at 25 ppm [4]

COC(=O)N(Cc1ccc(-n2cccn2)cc1)NC(=O)c1cc(C)nnc1Oc1cccc(C2CC2)c1F [b-172]
≥ 75%: pest or weed control at 125 ppm [6] | inhibition of growth at 25 ppm [1] | inhibition of growth at 25 ppm [3] | inhibition of growth at 25 ppm [4]

COC(=O)N(Cc1ccc2ncsc2c1)NC(=O)c1cc(C)nnc1Oc1cccc(C2CC2)c1F [b-173]
≥ 75%: pest or weed control at 125 ppm [6] | inhibition of growth at 25 ppm [3] | inhibition of growth at 25 ppm [4]

CSC(=S)N(Cc1ccc(C)cc1C)NC(=O)c1cc(C)nnc1Oc1cccc(C2CC2)c1F [b-174]
≥ 75%: pest or weed control at 125 ppm [6] | inhibition of growth at 25 ppm [3] | inhibition of growth at 25 ppm [4]

COC(=O)N(Cc1ccc(C)cc1C)NC(=O)c1cc(-n2cccn2)ncc1Oc1cccc(C2CC2)c1F [b-186]
≥ 75%: pest or weed control at 125 ppm [6] | inhibition of growth at 25 ppm [1] | pest or weed control at 25 ppm [2] | pest or weed control at 125 ppm [2] | inhibition of growth at 25 ppm [3] | inhibition of growth at 25 ppm [4]

Cc1ccc(CN(NC(=O)c2cc(C)nnc2Oc2cccc(C3CC3)c2F)C(=O)OCC(F)F)c(C)c1 [b-197]
≥ 75%: inhibition of growth at 25 ppm [1] | pest or weed control at 25 ppm [2] | pest or weed control at 125 ppm [2] | inhibition of growth at 25 ppm [3] | inhibition of growth at 25 ppm [4]

COC(=O)N(Cc1ccc(C)cc1C)NC(=O)c1c(Oc2cccc(C3CC3)c2)cnn(C(C)C)c1=O [b-224]
≥ 75%: inhibition of growth at 25 ppm [1] | pest or weed control at 125 ppm [2] | inhibition of growth at 25 ppm [3] | inhibition of growth at 25 ppm [4]
